How the values were obtained:
[1] = target: T1, human serum albumin (HSA) (Homo sapiens, UniProt P02768); test: Retention on Chiral-HSA column (HPLC) with different organic modifiers; format: binding; details: 25 °C
T1 construct: purchased Chiral Technologies Inc., a subsidiary of Daicel Chemical Industries Ltd
Procedure: In the next step, different organic modifiers in different percentages were tested. Columns with immobilized proteins, such as Chiral-HSA, are very susceptible to the type and percentage of the organic modifier, which can lead to changes in the tridimensional structure of the protein and can alter the secondary interactions between the analyte and the CSP [30, 31]. According to the instructions of the column manufacturer, the maximum usable organic modifier percentage in the mobile phase was 20% [32]. In our study, the effect of 2-propanol (IPA), 1-propanol (PROP), ethanol (EtOH), methanol (MeOH) and acetonitrile (ACN) on the retention factor (k) and selectivity (α) was investigated. The organic modifiers were used in five different percentages in 10 mM phosphate buffer adjusted to pH 7, using a flow rate of 0.7 mL/min, at 25 °C.
LC–UV analysis was carried out on an Agilent 1100 HPLC system consisting of a quaternary pump, an autosampler, a column compartment, and a DAD detector (Agilent Technologies, Waldbronn, Germany). ChemStation software (ver.: B04 03-SP2) was used for data analysis. UV detection was performed at 230 nm. The APR stock solution was prepared at 1 mg mL^−1 in MeOH, and further dilutions were made with water. An injection volume of 5 μL was used.
The retention factor (k) was calculated using the following equation:(5) k=tr−t0/to where tr is the retention time of the analyte, and t0 is the dead time, determined as the first peak appearance in the chromatogram.
The separation factor (α) was calculated as follows:(6) α=k2/k1 where k1 and k2 are the retention factors of the first- and second-eluting enantiomer, respectively. The k values were used to calculate the albumin-bound percentage (b%) using Equation (7) by zonal elution chromatography:(7) b%=k/1+k·100

[2] = target: T1, human serum albumin (HSA); test: Fluorescence quenching titration of HSA, stability constants; format: binding; details: 10 mM phosphate buffer pH 7, 25 °C, excitation 280 nm
Procedure: The observed fluorescence intensities of HSA and the HSA–APR complexes at increasing APR concentrations were plotted against the total concentration of APR in the solution, and the stability constants were calculated according to Equation (18) by nonlinear parameter fitting.
The fluorescence measurements were carried out on a Jasco J-815 spectropolarimeter with a connected CDF-426L fluorescence detector and a temperature-controlled 10 mm cuvette holder (Jasco, Tokyo, Japan), thermostated to 25 °C with a Lauda water bath circulation thermostat (Lauda Brinkmann, Königshofen, Germany). Spectra Manager software (ver.: 2.08.04) was used for data analysis. The fluorescence analysis was performed with an excitation spectrum of 260–300 nm and detection of the cumulative fluorescence spectrum. […] A volume of 3 mL of the HSA stock solution with an HSA concentration of 0.32 μM was titrated with 2.5–30 μL of S- and, separately, R-APR solutions prepared at 3.75 mg mL^−1 in MeOH, which equals to a range of 6.8–80.6 μM of APR in the measured solution.
The stability constants of both enantiomers were calculated. […] Note that since the fluorescence signal of the ligand (APR) was subtracted for each sample, (IAPR) could be excluded from this equation (8) Iobs.=IHSA·χHSA+IAPR−HSA·χAPR−HSA where ΧHSA is the mole fraction of free HSA, while ΧAPR-HSA is the mole fraction of the APR-HSA complex. […]

[3] = 1-PROP 2% in 10 mM phosphate buffer pH 7, 0.7 mL/min
[4] = 1-PROP 4% in 10 mM phosphate buffer pH 7, 0.7 mL/min
[5] = 1-PROP 6% in 10 mM phosphate buffer pH 7, 0.7 mL/min
[6] = 1-PROP 8% in 10 mM phosphate buffer pH 7, 0.7 mL/min
[7] = 1-PROP 10% in 10 mM phosphate buffer pH 7, 0.7 mL/min
[8] = ACN 2% in 10 mM phosphate buffer pH 7, 0.7 mL/min
[9] = ACN 4% in 10 mM phosphate buffer pH 7, 0.7 mL/min
[10] = ACN 6% in 10 mM phosphate buffer pH 7, 0.7 mL/min
[11] = ACN 8% in 10 mM phosphate buffer pH 7, 0.7 mL/min
[12] = ACN 10% in 10 mM phosphate buffer pH 7, 0.7 mL/min
[13] = EtOH 2% in 10 mM phosphate buffer pH 7, 0.7 mL/min
[14] = EtOH 4% in 10 mM phosphate buffer pH 7, 0.7 mL/min
[15] = EtOH 6% in 10 mM phosphate buffer pH 7, 0.7 mL/min
[16] = EtOH 8% in 10 mM phosphate buffer pH 7, 0.7 mL/min
[17] = EtOH 10% in 10 mM phosphate buffer pH 7, 0.7 mL/min
[18] = IPA 2% in 10 mM phosphate buffer pH 7, 0.7 mL/min
[19] = IPA 4% in 10 mM phosphate buffer pH 7, 0.7 mL/min
[20] = IPA 6% in 10 mM phosphate buffer pH 7, 0.7 mL/min
[21] = IPA 8% in 10 mM phosphate buffer pH 7, 0.7 mL/min
[22] = IPA 10% in 10 mM phosphate buffer pH 7, 0.7 mL/min
[23] = MeOH 2% in 10 mM phosphate buffer pH 7, 0.7 mL/min
[24] = MeOH 4% in 10 mM phosphate buffer pH 7, 0.7 mL/min
[25] = MeOH 6% in 10 mM phosphate buffer pH 7, 0.7 mL/min
[26] = MeOH 8% in 10 mM phosphate buffer pH 7, 0.7 mL/min
[27] = MeOH 10% in 10 mM phosphate buffer pH 7, 0.7 mL/min

T1 sequence (P02768 25-609): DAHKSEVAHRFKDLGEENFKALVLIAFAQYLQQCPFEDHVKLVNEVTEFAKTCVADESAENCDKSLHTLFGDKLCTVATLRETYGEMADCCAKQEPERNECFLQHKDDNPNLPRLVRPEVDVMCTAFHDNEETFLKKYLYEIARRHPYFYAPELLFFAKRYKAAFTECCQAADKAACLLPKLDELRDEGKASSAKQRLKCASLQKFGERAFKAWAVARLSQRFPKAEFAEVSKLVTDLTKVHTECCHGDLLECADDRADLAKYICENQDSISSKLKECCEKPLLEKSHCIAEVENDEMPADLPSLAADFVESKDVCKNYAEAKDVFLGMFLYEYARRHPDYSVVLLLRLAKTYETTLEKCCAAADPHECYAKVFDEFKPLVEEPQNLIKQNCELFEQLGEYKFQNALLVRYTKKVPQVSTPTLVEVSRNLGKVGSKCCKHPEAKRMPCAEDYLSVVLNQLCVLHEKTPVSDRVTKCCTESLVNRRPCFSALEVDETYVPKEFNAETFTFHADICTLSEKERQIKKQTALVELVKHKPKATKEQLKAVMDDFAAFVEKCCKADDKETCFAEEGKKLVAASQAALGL

Row | retention factor k [1, 3] | retention factor k [1, 4] | retention factor k [1, 5] | retention factor k [1, 6] | retention factor k [1, 7] | retention factor k [1, 8] | retention factor k [1, 9] | retention factor k [1, 10] | retention factor k [1, 11] | retention factor k [1, 12] | retention factor k [1, 13] | retention factor k [1, 14] | retention factor k [1, 15] | retention factor k [1, 16] | retention factor k [1, 17] | retention factor k [1, 18] | retention factor k [1, 19] | retention factor k [1, 20] | retention factor k [1, 21] | retention factor k [1, 22] | Structure (SMILES) | further results
1 | 8.99 | 5.96 | 4.19 | 1.99 | 1.32 | 7.56 | 3.98 | 2.80 | 2.03 | 1.42 | 8.72 | 4.93 | 3.33 | 2.83 | 2.66 | 8.04 | 5.00 | 3.01 | 2.26 | 1.45 | CCOc1cc([C@H](CS(C)(=O)=O)N2C(=O)c3cccc(NC(C)=O)c3C2=O)ccc1OC [R-APR] | retention factor k [1, 23]: 13.05; retention factor k [1, 24]: 9.32; retention factor k [1, 25]: 6.05; retention factor k [1, 26]: 4.48; retention factor k [1, 27]: 3.72; stability constant K of the enantiomer–HSA complex [2]: 6450 M⁻¹
2 | 13.98 | 8.04 | 5.20 | 2.25 | 1.32 | 10.05 | 4.90 | 3.09 | 2.03 | 1.42 | 13.84 | 6.52 | 4.12 | 3.20 | 2.94 | 13.48 | 7.62 | 3.76 | 2.56 | 1.45 | CCOc1cc([C@@H](CS(C)(=O)=O)N2C(=O)c3cccc(NC(C)=O)c3C2=O)ccc1OC [S-APR, apremilast] | retention factor k [1, 23]: 19.00; retention factor k [1, 24]: 15.27; retention factor k [1, 25]: 8.07; retention factor k [1, 26]: 5.32; retention factor k [1, 27]: 3.98; stability constant K of the enantiomer–HSA complex [2]: 10400 M⁻¹
